Assay results published in patent US9408811B2, “Pharmaceutical composition comprising guttiferone F for the treatment of prostate cancer” (Hong Kong Baptist University, priority 2013, dated 2016).

Legend:
LNCaP = assay: MTT cytotoxic assay, LNCaP; format: cell-based, human
Protocol: (§1) Two human prostate cancer cell lines LNCaP and PC3 are maintained in RPMI1640 (Sigma Chemical Company, St. Louis, Mo., USA) supplemented with 10% fetal bovine serum (HyClone). Hepatocellular carcinoma cell line Hep G2, epithelial cervical cancer cell line HeLa and nasopharyngeal carcinoma cell line CNE are maintained in DMEM (Invitrogen) supplemented with 10% new-born calf serum (Gibco), 100 U/ml penicillin and 100 μg/ml streptomycin (Invitrogen). All cancer cells are maintained in a humidified atmosphere containing 5% CO2 at 37° C.
(§2) Different cancer cells are seeded in a 96-well plate and pre-incubated for 24 hours before treatment with Guttiferone F (0-50 μM). After 48 h of treatment, 10 μl of MTT solution (5 mg/ml) (Sigma Chemical Company, St. Louis, Mo., USA) are added to each well and incubated for 4 h. The resulting crystals are dissolved in DMSO. The controls include native cells and medium only. The spectrophotometric absorbance at 570 nm is measured using a microplate reader (Synergy HT, Bio-Tek Instruments Inc., Winooski, Vt., USA). The percentage cytotoxicity is calculated by the formula: Percentage cytotoxicity (cell death)=[1-(absorbance of experimental wells/absorbance of control wells)]×100%.

PC-3 = assay: MTT cytotoxic assay, PC-3; format: cell-based; conditions: Homo sapiens, 48 h of treatment
Protocol: as §1, §2

Hep G2 = assay: MTT cytotoxic assay, Hep G2; format: cell-based; conditions: Homo sapiens, HepG2, 48 h of treatment
Protocol: as §1, §2

HeLa = assay: MTT cytotoxic assay, HeLa; format: cell-based; conditions: Homo sapiens, 48 h of treatment
Protocol: as §1, §2

LNCaP cells [1] = assay: Flow cytometry (PI, FACS) sub-G1 apoptosis; format: cell-based, human; conditions: 10 μM, serum-free medium, 24 h and 48 h
Protocol: Based on the result of the above MTT assay on prostate cancer cell lines, LNCaP cells and 10 μM of Guttiferone F are selected for studying the effect of Guittiferone F on apoptosis of human prostate cancer cells. Before that, LNCaP cells are treated with Guttiferone F at the concentration of 10 μM. Cells are trypsinized and fixed in ice-cold 100% methanol overnight at 4° C. Cells are washed, stained with propidium iodide (PI) for overnight, and subjected to fluorescence activated cell sorting (FACS) analysis on a FAC Scan flow cytometer (BD PharMingen, USA). Data are analyzed using the WinMID software.
To detect the apoptosis, sub-G1 phase cells were measured. Such cells are usually considered to be the result of apoptotic DNA fragmentation. The DNA is degraded by cellular endonucleases, during apoptosis. Therefore, nuclei of apoptotic cells contain less DNA than nuclei of healthy G0/G1 cells, resulting in a sub-G1 peak in the fluorescent histogram that may be used to determine the relative amount of apoptotic cells.

LNCaP cells [2] = assay: Hoechst 33258 / MitoTracker Red confocal microscopy; format: cell-based, human; conditions: treatment for 12 h or 24 h, laser confocal microscopy
Protocol: Hoechst is depicted as blue in the first column of images while MitoTracker Red is depicted as red in the second column of images; double stain of Hoechst 33258 and MitoTacker Red is shown in the third column of images, in which the dotted square in each image represents the area where the part is enlarged; the corresponding enlarged area of the image from the third column is shown in the fourth column.
LNCaP cells (2×10^5) are seeded on 35 mm culture dish and incubated 24 h to allow attachment. After the different treatment of Guttiferone F for 12 h or 24 h, the medium is removed from the dish and the staining solution (50 μg/ml Hoechst 33258 and 1 ng/ml MitoTracker Red in PBS) is added. The fluorescence of the bound dyes is analyzed using a laser scanning confocal microscope (FV10i, Olympus Corporation, Japan).

PC3 cells [3] = assay: PC3 xenograft nude mouse model A, intratumoral injection; format: in vivo, nude mice; conditions: intratumoral injection every two days for 20 days; 20 μM 3 times, then 100 μM; FIG. 4, p<0.05
Protocol: A total of 1×10^6 PC3 cells suspended in 100 μl of PBS and 100 μl of Matrigel (BD Biosciences, Bedford, Mass.) are inoculated subcutaneously (s.c.) into the right flank of six 4-week-old male nude mice. Drug injections are made once the tumors reach an average volume of about 100 mm^3. Mice are divided randomly into two groups of 3 mice in each group and subjected to intratumoral injection of vehicle (control) or […] Guttiferone F every two days for 20 days. (After 20 μM GF for 3 times, the dosage is increased to 100 μM GF). Tumor volume is measured by calipers and calculated by V=L×W^2/2 at different time intervals. For intratumoral injection, […] Guttiferone F is prepared in 5% dimethyl sulfoxide, 5% tween 80, and 90% PBS.

PC3 cells [4] = assay: PC3 xenograft nude mouse model B, intraperitoneal injection 10 mg/kg; format: in vivo, nude mice; conditions: intraperitoneal injection 10 mg/kg every two days for 18 days; FIG. 5
Protocol: A total of 1×10^6 PC3 cells suspended in 100 μl of PBS and 100 μl of Matrigel are inoculated subcutaneously into the right flank of […] 4-week-old male nude mice. Drug injections are made once the tumors reach an average volume of about 200 mm^3. Mice are divided randomly into two groups of 7 for each group and subjected to intraperitoneal injection of vehicle or 10 mg/kg Guttiferone F every two days for 18 days. Tumor volume is measured by calipers and calculated by V=L×W^2/2. For intratumoral injection, Guttiferone F is prepared in 5% dimethyl sulfoxide, 5% tween 80, and 90% PBS.

PC3 cells [5] = assay: PC3 xenograft BALB/c nude mice, intraperitoneal GF with or without caloric restriction; format: in vivo; conditions: i.p. 20 mg/kg normally fed, or 10 mg/kg with caloric restriction, versus control; FIG. 6, p<0.01
Protocol: Four-week-old male BALB/c nude mice from the Experimental Animal Center of Chinese Academy of Science (Shanghai, China) are used in this example. Approximately 1×10^6 PC3 cells suspended in 100 μl of PBS and 100 μl of Matrigel are injected subcutaneously into the right side of the animals. One week later, 28 mice bearing tumors around 50 mm^3 in volume are randomly divided into four groups (n=7 per group): Group 1: Control (normally fed, receiving daily i.p. vehicle), Group 2: Caloric restriction (fed with 70% of their normal food intake, receiving daily i.p. vehicle), Group 3: GF (normally fed, receiving daily i.p. 20 mg/kg of GF), and Group 4: GF+caloric restriction (calorie-restricted mice receiving daily i.p. 10 mg/kg of GF). Mice are administered via intraperitoneal injection of vehicle (control) in a form of solvent (0.5% DMSO, 0.5% Tween-80 in saline) and GF at the dose of 10 mg/kg or 20 mg/kg in 200 μl vehicle once every other day. […] Using the conversion formula between animal dose and human dose taught in Regan-Shaw et al. (2007), the daily human dose of GF through intraperitoneal injection is about 1.62 mg/kg to 2.4 mg/kg (corresponding to 20 mg/kg of GF for mouse); the daily human dose of GF under calorie restriction is at least in a range of 0.81 mg/kg to 1.2 mg/kg (corresponding to 10 mg/kg of GF for mouse).

## C=C(C)[C@H](CC=C(C)C)C[C@@]12C[C@@H](CC=C(C)C)C(C)(C)[C@@](CC=C(C)C)(C(=O)C(C(=O)c3ccc(O)c(O)c3)=C1O)C2=O [Guttiferone F]
LNCaP; Homo sapiens, LNCaP, MTT, 48 h of treatment
  IC50: 5.17 ± 0.2 µM
LNCaP; prostate cancer cell lines versus other cell lines, Table 1
  selectivity between cell lines in MTT assay: more specific to human prostate cancer than the others
PC-3
  IC50: 12.6 ± 3.01 µM
Hep G2
  IC50: 32.9 ± 1.56 µM
HeLa
  IC50: 13.1 ± 1.32 µM
LNCaP cells [1]
  apoptosis (sub-G1 phase cells): induce LNCaP cell death by apoptosis significantly
LNCaP cells [2]
  change in mitochondria and nucleus DNA: DNA fragmentation and mitochondria focus are visualized
PC3 cells [3]
  tumor growth (tumor volume): the growth of tumor is inhibited significantly after 14 days
PC3 cells [4]
  tumor growth (tumor volume): the growth of tumor is not inhibited significantly in 18 days
PC3 cells [5]
  tumor growth (tumor volume): tumor growth is significantly less prominent
